Measurements taken from patent US12138320B2, “Composition and methods for tumor imaging and treatment” (The University of Chicago, priority 2020, dated 2024).

Columns and labels:
NCEH1 = molecular target: T1, NCEH1 (Mus musculus, UniProt Q8BLF1); assay: In vivo microPET/CT imaging and ex vivo biodistribution in nude mice
T1 construct: For murine proteomes, mouse tissues were Dounce-homogenized on ice in cold PBS; from tissue; host or cells: athymic nude mice: heart, kidney, lung, liver, brain, spleen and other organs
T1 sequence (Q8BLF1 1-408): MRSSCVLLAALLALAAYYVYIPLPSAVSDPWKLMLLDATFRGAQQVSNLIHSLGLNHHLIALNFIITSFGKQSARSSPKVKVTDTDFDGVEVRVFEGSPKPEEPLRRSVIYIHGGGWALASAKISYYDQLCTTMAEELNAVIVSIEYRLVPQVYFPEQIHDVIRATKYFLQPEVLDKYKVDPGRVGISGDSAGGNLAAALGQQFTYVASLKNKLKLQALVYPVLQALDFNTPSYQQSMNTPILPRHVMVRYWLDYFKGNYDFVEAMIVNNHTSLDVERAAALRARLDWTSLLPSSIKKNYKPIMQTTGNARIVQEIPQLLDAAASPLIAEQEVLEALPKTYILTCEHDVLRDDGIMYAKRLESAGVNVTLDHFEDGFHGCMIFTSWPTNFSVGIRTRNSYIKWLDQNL
Protocol: In vivo microPET/CT imaging: All imaging was performed by the Integrated Small Animal Imaging Research Resource (iSAIRR) at the University of Chicago (Chicago, Illinois, United States of America) on a β-Cube and X-Cube (Molecubes NV, Ghent, Belgium). […] MicroCT images were acquired using the general purpose protocol, with energy of 50 KeV and a tube current of 100 μA. Respiration rate and body temperature of the animal were constantly monitored during the entire scanning period with the p-Cube and X-Cube onboard monitoring system. A 1 hr dynamic PET acquisition was started 2 hours after [^18F]JW199 injection. Dynamic reconstruction was performed for 6 frames of 10 minutes each using a three-dimensional (3D) OSEM algorithm with 400 μm isometric voxel size. For competition studies, mice were pretreated with either 80 mg/kg JW480 or vehicle (polyethylene glycol 300 (PEG300)) via oral gavage, followed 4 hours later by dosing with [^18F]JW199 and imaging as described. For the MDA-MB231 study, [^18F]JW199 injection was followed immediately by dynamic PET acquisition (90 min) and microCT scanning as detailed above. Dynamic PET image reconstruction included 9 frames of 10 minutes each.
Dynamic reconstruction was performed using a three-dimensional OSEM algorithm with 400 μm isometric voxel size. All image analysis was performed with software sold under the tradename VivoQuant™ (inviCRO, LLC, Boston, Massachusetts, United States of America). 3D regions of interest (ROIs) were drawn and standardized uptake values (SUVs) and percent injected dose per cubic centimeter of tissue (% ID/cc) were calculated for each ROI and time point. % ID/cc was calculated as a ratio of tissue radioactivity concentration (mCi/g) at time of scan to total injected activity (millicurie (mCi)) at time of scan.
Ex vivo Biodistribution: All animals were sacrificed at 3 hours post [^18F]JW199 injection and organs and tumors were immediately harvested. All tissues were weighed, and radioactivity was counted using a Cobra II […] (PerkinElmer, Waltham, Massachusetts, United States of America) calibrated for [^18F] energy. The concentration of radioactivity in tumor, organs, and tissues was determined as percentage of injected dose per cubic centimeter of tissue (% ID/cc).

[1] = test system: PC3 prostate cancer xenografts; assay: PET/CT imaging and ex vivo biodistribution in mice bearing PC3 xenografts; design: species or system mouse; details: ex vivo quantitation, 3 hours after injection, prostate cancer model
From the text: FIGS. 12A-12C: In vivo prostate cancer tumor images with fluorine-18-labeled 2-isopropylphenyl-(4-(2-fluorethoxy)phenethyl)carbamate ([^18F]JW199) tracer. FIG. 12A is a representative whole-body positron emission tomography-computed tomography (PET-CT) image of a PC3 prostate cancer cell tumor-bearing mouse and tumor boundary image in inset. Image is representative of n=4 mice. B. FIG. 12B is a graph showing the ex vivo biodistribution of [^18F]JW199 in mice bearing PC3 xenografts. Quantification of radiotracer signal in the indicated tissues 3 hours after injection of 150 microcurie (μCi) of radiotracer. Data are means percentage injected dose per cubic centimeter (% ID/cc)±standard deviation (SD) (n=4 male mice). FIG. 12C is a graph of the glyceraldehyde-3-phosphate dehydrogenase (GAPDH)-normalized neutral cholesterol ester hydrolase 1 (NCEH1) protein levels in the edge (red) and inside (blue) areas of tumor xenografts, ***p<0.001 as determined by Student's t-test. […]
In vivo microPET/CT imaging: All imaging was performed by the Integrated Small Animal Imaging Research Resource (iSAIRR) at the University of Chicago (Chicago, Illinois, United States of America) on a β-Cube and X-Cube (Molecubes NV, Ghent, Belgium). […] Respiration rate and body temperature of the animal were constantly monitored during the entire scanning period with the p-Cube and X-Cube onboard monitoring system. […]

## CC(C)c1ccccc1OC(=O)NCCc1ccc(OCC[18F])cc1 [[^18F]JW199, fluorine-18-labeled 2-isopropylphenyl-(4-(2-fluoroethoxy)phenethyl)carbamate]
NCEH1; during the entire imaging procedure
  PET signal kinetics in target organs: quickly reached and maintained constant levels
NCEH1; i.v.
  PET signal in the brain: low PET signal
NCEH1; i.v., inferred from brain PET signal
  CNS penetration: low CNS penetration
NCEH1; i.v., tissues with low Nceh1 mRNA levels
  uptake in adipose depots, liver and bone: relatively low uptake
NCEH1; i.v., ~100 μCi, tissues with relatively high Nceh1 expression
  PET signal accumulation in kidney, heart and lung: Significant signal accumulation
NCEH1; mouse, in vivo
  accumulation in mouse tissues: rapid, NCEH1-dependent accumulation
[1]
  total radioactivity in bulk tumor tissue relative to surrounding muscle: higher total radioactivity
